Results taken from PubChem BioAssay (NCI).
Values joined by “and” are separate entries in the source; they are usually repeats but may differ in a detail not shown here. Equal entries are not always repeated.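 Protocol summary: plate cells (96-well), add compound at 5 concentrations, incubate 48 h, interpolate endpoints linearly. GI50 = concentration required for 50% inhibition of growth. TGI: total growth inhibition.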

Experiments:
Assay in all cases: NCI tumour cell line growth inhibition, 48 h
M14 melanoma = test system: M14 melanoma
RXF 393 renal = test system: RXF 393 renal
LOX IMVI melanoma = test system: LOX IMVI melanoma
HL-60(TB) leukemia = test system: HL-60(TB) leukemia
OVCAR-3 ovarian = test system: OVCAR-3 ovarian
CCRF-CEM leukemia = test system: CCRF-CEM leukemia
M19-MEL melanoma = test system: M19-MEL melanoma
NCI-H23 lung = test system: NCI-H23 lung
RXF-631 renal = test system: RXF-631 renal
A498 renal = test system: A498 renal
K-562 leukemia = test system: K-562 leukemia
KM12 colon = test system: KM12 colon
HOP-18 NSCLC = test system: HOP-18 NSCLC
OVCAR-5 ovarian = test system: OVCAR-5 ovarian
SNB-78 CNS = test system: SNB-78 CNS
A549 NSCLC = test system: A549 NSCLC
DMS 114 small cell lung = test system: DMS 114 small cell lung
RPMI-8226 leukemia = test system: RPMI-8226 leukemia
UO-31 renal = test system: UO-31 renal
COLO 205 colon = test system: COLO 205 colon
SK-MEL-5 melanoma = test system: SK-MEL-5 melanoma
SK-OV-3 ovarian = test system: SK-OV-3 ovarian
UACC-62 melanoma = test system: UACC-62 melanoma
SF-268 CNS = test system: SF-268 CNS
ACHN renal = test system: ACHN renal
DMS 273 small cell lung = test system: DMS 273 small cell lung
HOP-92 NSCLC = test system: HOP-92 NSCLC
HCT-15 colon = test system: HCT-15 colon
NCI-H460 lung = test system: NCI-H460 lung
SNB-19 CNS = test system: SNB-19 CNS
786-0 renal = test system: 786-0 renal
EKVX NSCLC = test system: EKVX NSCLC
UACC-257 melanoma = test system: UACC-257 melanoma
LXFL 529 NSCLC = test system: LXFL 529 NSCLC
HT29 colon = test system: HT29 colon
MOLT-4 leukemia = test system: MOLT-4 leukemia
U251 CNS = test system: U251 CNS
XF 498 CNS = test system: XF 498 CNS
OVCAR-8 ovarian = test system: OVCAR-8 ovarian
HCT-116 colon = test system: HCT-116 colon
SK-MEL-2 melanoma = test system: SK-MEL-2 melanoma
TK-10 renal = test system: TK-10 renal
DLD-1 colon = test system: DLD-1 colon
SK-MEL-28 melanoma = test system: SK-MEL-28 melanoma
SF-539 CNS = test system: SF-539 CNS
HCC-2998 colon = test system: HCC-2998 colon
KM20L2 colon = test system: KM20L2 colon
SNB-75 CNS = test system: SNB-75 CNS
IGROV1 ovarian = test system: IGROV1 ovarian
CAKI-1 renal = test system: CAKI-1 renal
NCI-H226 lung = test system: NCI-H226 lung
OVCAR-4 ovarian = test system: OVCAR-4 ovarian
MALME-3M melanoma = test system: MALME-3M melanoma
SF-295 CNS = test system: SF-295 CNS
SW-620 colon = test system: SW-620 colon
NCI-H522 lung = test system: NCI-H522 lung
SN12C renal = test system: SN12C renal
HOP-62 NSCLC = test system: HOP-62 NSCLC
SR leukemia = test system: SR leukemia

Cc1cc(Cl)cc2c1NC(=O)C2(O)C(C(=O)c1ccccc1)c1ccccc1 (centres undefined)
GI50 (M14 melanoma): 90.9 µM and 22.6 µM | TGI (M14 melanoma): > 100 µM and 55.5 µM | GI50 (RXF 393 renal): 38 µM and 16.2 µM | TGI (RXF 393 renal): 86.1 µM and 31.7 µM | TGI (LOX IMVI melanoma): > 100 µM and 46.1 µM | TGI (HL-60(TB) leukemia): 52.1 µM | GI50 (OVCAR-3 ovarian): 53 µM and 22.4 µM | TGI (OVCAR-3 ovarian): > 100 µM and 54.1 µM | TGI (CCRF-CEM leukemia): 81.5 µM | TGI (M19-MEL melanoma): 10 µM | TGI (NCI-H23 lung): > 100 µM | TGI (RXF-631 renal): > 100 µM | TGI (A498 renal): 65.7 µM | TGI (K-562 leukemia): > 100 µM | TGI (KM12 colon): > 100 µM | GI50 (HOP-18 NSCLC): > 100 µM and 22 µM | TGI (HOP-18 NSCLC): > 100 µM and 95.7 µM | TGI (OVCAR-5 ovarian): > 100 µM | TGI (SNB-78 CNS): > 100 µM | GI50 (A549 NSCLC): 97.1 µM and 22.6 µM | TGI (A549 NSCLC): > 100 µM and 51.5 µM | TGI (DMS 114 small cell lung): 85.7 µM and 45.8 µM | TGI (RPMI-8226 leukemia): 64.5 µM and 42.4 µM | GI50 (UO-31 renal): 67.6 µM and 27.3 µM | TGI (UO-31 renal): > 100 µM and 48.4 µM | GI50 (COLO 205 colon): > 100 µM and 15.2 µM | TGI (COLO 205 colon): > 100 µM and 30 µM | TGI (SK-MEL-5 melanoma): 45.4 µM | TGI (SK-OV-3 ovarian): > 100 µM | TGI (UACC-62 melanoma): 33.3 µM | GI50 (SF-268 CNS): 84.3 µM and 34.8 µM | TGI (SF-268 CNS): > 100 µM and 95.3 µM | GI50 (ACHN renal): 43 µM and 18.8 µM | TGI (ACHN renal): > 100 µM and 40.6 µM | TGI (DMS 273 small cell lung): > 100 µM | GI50 (HOP-92 NSCLC): 17.2 µM and 43.3 µM | TGI (HOP-92 NSCLC): 78.7 µM and > 100 µM | TGI (HCT-15 colon): > 100 µM | GI50 (NCI-H460 lung): > 100 µM and 36.9 µM | TGI (NCI-H460 lung): > 100 µM | TGI (SNB-19 CNS): > 100 µM | GI50 (786-0 renal): 38.2 µM and 12.9 µM | TGI (786-0 renal): > 100 µM and 29.3 µM | TGI (EKVX NSCLC): > 100 µM | GI50 (UACC-257 melanoma): 57 µM and 19.9 µM | TGI (UACC-257 melanoma): > 100 µM and 52.1 µM | GI50 (LXFL 529 NSCLC): 56.2 µM and 24 µM | TGI (LXFL 529 NSCLC): > 100 µM and 72.8 µM | TGI (HT29 colon): > 100 µM | TGI (MOLT-4 leukemia): 70.9 µM | GI50 (U251 CNS): > 100 µM and 31.1 µM | TGI (U251 CNS): > 100 µM | TGI (XF 498 CNS): 82.7 µM and > 100 µM | GI50 (OVCAR-8 ovarian): > 100 µM and 32.5 µM | TGI (OVCAR-8 ovarian): > 100 µM | TGI (HCT-116 colon): 79.3 µM | TGI (SK-MEL-2 melanoma): > 100 µM | TGI (TK-10 renal): > 100 µM | TGI (DLD-1 colon): > 100 µM | GI50 (SK-MEL-28 melanoma): 96.6 µM and 24.5 µM | TGI (SK-MEL-28 melanoma): > 100 µM and 51 µM | TGI (SF-539 CNS): 39.7 µM | TGI (HCC-2998 colon): > 100 µM and 60.4 µM | TGI (KM20L2 colon): > 100 µM | TGI (SNB-75 CNS): 83.2 µM and 60.7 µM | TGI (IGROV1 ovarian): 83 µM | GI50 (CAKI-1 renal): 35.7 µM and > 100 µM | TGI (CAKI-1 renal): > 100 µM | TGI (NCI-H226 lung): > 100 µM and 58.3 µM | TGI (OVCAR-4 ovarian): > 100 µM and 40 µM | GI50 (MALME-3M melanoma): 91.5 µM and 22.7 µM | TGI (MALME-3M melanoma): > 100 µM and 49.2 µM | TGI (SF-295 CNS): > 100 µM | TGI (SW-620 colon): > 100 µM | TGI (NCI-H522 lung): > 100 µM | GI50 (SN12C renal): > 100 µM and 14.9 µM | TGI (SN12C renal): > 100 µM and 38.6 µM | TGI (HOP-62 NSCLC): > 100 µM

COc1ccc2nc3ccccc3c(NCCN(CCCl)CCCl)c2c1
TGI (M14 melanoma): 2.28 µM | TGI (HL-60(TB) leukemia): 1.1 µM | TGI (OVCAR-3 ovarian): 1.08 µM | TGI (CCRF-CEM leukemia): 2.39 µM | TGI (M19-MEL melanoma): 3.2 µM | TGI (RXF-631 renal): 4.71 µM | TGI (A498 renal): 5.73 µM | TGI (K-562 leukemia): 4.92 µM | TGI (KM12 colon): 4.37 µM | TGI (OVCAR-5 ovarian): 2.49 µM | TGI (SNB-78 CNS): 4.53 µM | TGI (A549 NSCLC): 10.7 µM | TGI (UO-31 renal): 4.39 µM | TGI (SK-OV-3 ovarian): 5.05 µM | TGI (UACC-62 melanoma): 2.3 µM | TGI (SF-268 CNS): 5.74 µM | TGI (ACHN renal): 2.53 µM | TGI (HOP-92 NSCLC): 2.43 µM | TGI (SNB-19 CNS): 7.66 µM | TGI (786-0 renal): 2.4 µM | TGI (EKVX NSCLC): 8.02 µM | TGI (UACC-257 melanoma): 3.99 µM | TGI (LXFL 529 NSCLC): 2.25 µM | TGI (HT29 colon): 61.1 µM | TGI (MOLT-4 leukemia): 0.758 µM | TGI (U251 CNS): 2.31 µM | TGI (XF 498 CNS): 1.89 µM | TGI (OVCAR-8 ovarian): 2.9 µM | TGI (HCT-116 colon): 2.08 µM | TGI (TK-10 renal): 5.59 µM | TGI (DLD-1 colon): 4.04 µM | TGI (SK-MEL-28 melanoma): 5.28 µM | TGI (SR leukemia): 0.379 µM | TGI (HCC-2998 colon): 2.73 µM | TGI (KM20L2 colon): 2.4 µM | TGI (SNB-75 CNS): 5.72 µM | TGI (IGROV1 ovarian): 4.34 µM | TGI (CAKI-1 renal): 0.937 µM | TGI (NCI-H226 lung): 4.74 µM | TGI (OVCAR-4 ovarian): 3.14 µM | TGI (MALME-3M melanoma): 3.01 µM | TGI (SF-295 CNS): 10 µM | TGI (SW-620 colon): 2.51 µM | TGI (NCI-H522 lung): 1.75 µM | TGI (SN12C renal): 4.21 µM | TGI (HOP-62 NSCLC): 2.97 µM
